Blank lines part the entries; values can stand above or below the molecule they belong to.
Key:
[1] = biological target: T1, MMAB (recombinant human MMAB, amino acids 56–250) (Homo sapiens, UniProt Q96EY8); test: isothermal titration calorimetry; format: binding
T1 construct: N-terminally truncated residues 56-250, mitochondrial leader omitted; homotrimer, native mass 78 kDa by SEC
T1 sequence (Q96EY8 56-250): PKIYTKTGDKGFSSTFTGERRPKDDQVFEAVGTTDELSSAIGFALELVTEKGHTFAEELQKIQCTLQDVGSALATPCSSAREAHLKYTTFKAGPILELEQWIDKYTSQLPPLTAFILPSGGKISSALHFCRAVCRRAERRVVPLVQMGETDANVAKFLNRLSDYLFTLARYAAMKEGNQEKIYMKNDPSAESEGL

[2] = biological target: T1, MMAB (recombinant human MMAB, amino acids 56–250); test: fluorescence titration (MMAB into […] MANT-ATP, ex […] / em […] nm); format: binding
[3] = biological target: the molecule itself; test: SEC; analytical gel filtration, Superose 6 Increase 10/300 GL, Buffer A (100 mM HEPES pH 7.5, 300 mM KCl, 250 µM MgCl2, 5% glycerol); 100 µl of protein at 25 µM; calibrated with 29, 150 and 443 kDa standards

Kd [1]: 14.2 ± 0.6 µM
Molecule: Nc1ncnc2c1ncn2[C@@H]1O[C@H](COP(=O)(O)OP(=O)(O)OP(=O)(O)O)[C@@H](O)[C@H]1O [ATP]

Kd [2]: 21.1 ± 3.4 µM
Molecule: CNc1ccccc1C(=O)O[C@H]1[C@@H](O)[C@H](n2cnc3c(N)ncnc32)O[C@@H]1CO[P@@](=O)(O)O[P@](=O)(O)OP(=O)(O)O [MANT-ATP, 2',3'-O-(N-Methyl-anthraniloyl)-adenosine-5'-triphosphate]

B1: human ATP:cob(I)alamin adenosyltransferase (MMAB), amino acids 56-250 (enzyme, UniProt Q96EY8 56-250, looked up)
chain: T1 sequence (Q96EY8 56-250)
notes: ATP:cob(I)alamin adenosyltransferase (MMAB), human, N-terminally truncated, amino acids 56-250; same residues as in the human MMAB structure of Campanello et al. 2018; also called ATP:cobalamin adenosyltransferase; apo-MMAB; source: recombinant, produced as previously described (Plessl et al. 2017), purified
stoichiometry N [3]: 3

B2: human methylmalonyl-CoA mutase (MMUT) (enzyme, UniProt P22033 33-750, looked up)
chain: LHQQQPLHPEWAALAKKQLKGKNPEDLIWHTPEGISIKPLYSKRDTMDLPEELPGVKPFTRGPYPTMYTFRPWTIRQYAGFSTVEESNKFYKDNIKAGQQGLSVAFDLATHRGYDSDNPRVRGDVGMAGVAIDTVEDTKILFDGIPLEKMSVSMTMNGAVIPVLANFIVTGEEQGVPKEKLTGTIQNDILKEFMVRNTYIFPPEPSMKIIADIFEYTAKHMPKFNSISISGYHMQEAGADAILELAYTLADGLEYSRTGLQAGLTIDEFAPRLSFFWGIGMNFYMEIAKMRAGRRLWAHLIEKMFQPKNSKSLLLRAHCQTSGWSLTEQDPYNNIVRTAIEAMAAVFGGTQSLHTNSFDEALGLPTVKSARIARNTQIIIQEESGIPKVADPWGGSYMMECLTNDVYDAALKLINEIEEMGGMAKAVAEGIPKLRIEECAARRQARIDSGSEVIVGVNKYQLEKEDAVEVLAIDNTSVRNRQIEKLKKIKSSRDQALAERCLAALTECAASGDGNILALAVDASRARCTVGEITDALKKVFGEHKANDRMVSGAYRQEFGESKEITSAIKRVHKFMEREGRRPRLLVAKMGQDGHDRGAKVIATGFADLGFDVDIGPLFQTPREVAQQAVDADVHAVGISTLAAGHKTLVPELIKELNSLGRPDILVMCGGVIPPQDYEFLFEVGVSNVFGPGTRIPKAAVQVLDDIEKCLEKKQQSV
notes: methylmalonyl-CoA mutase (MMUT), human, recombinant; also called apo-MMUT; holo-MMUT; source: recombinant, produced as previously described (Plessl et al. 2017), purified
stoichiometry N [3]: 2

— publication PMC9262797, “Spectrum and characterization of bi-allelic variants in MMAB causing cblB-type methylmalonic aciduria” (Human Genetics, 2021)
